Data as given in ChEMBL document CHEMBL3526037, “Evaluation of the relationship between sex, polymorphisms in CYP2C8 and CYP2C9, and pharmacokinetics of angiotensin receptor blockers” (Drug Metab Dispos, 2013).

Legend:
Type in all cases: ADME, organism-based
[1] = AUC in men plasma at 80 mg by LC/MS/MS analysis; conditions: male, human
[2] = AUC in women plasma at 80 mg by LC/MS/MS analysis; conditions: female, human
[3] = Cmax in men plasma at 80 mg by LC/MS/MS analysis; parameters: dose 80 mg; conditions: male, human
[4] = Cmax in women plasma at 80 mg by LC/MS/MS analysis; parameters: dose 80 mg; conditions: female, human
[5] = Half life in men plasma at 80 mg by LC/MS/MS analysis; conditions: male, human
[6] = Half life in women plasma at 80 mg by LC/MS/MS analysis; conditions: female, human
[7] = Tmax in men plasma at 80 mg by LC/MS/MS analysis; conditions: male, human
[8] = Tmax in women plasma at 80 mg by LC/MS/MS analysis; conditions: female, human
[9] = AUC in human plasma expressing CYP2C8*1/*1 polymorphism at 80 mg by LC/MS/MS analysis
[10] = Cmax in human plasma expressing CYP2C8*1/*1 polymorphism at 80 mg by LC/MS/MS analysis; parameters: dose 80 mg
[11] = Half life in human plasma expressing CYP2C8*1/*1 polymorphism at 80 mg by LC/MS/MS analysis
[12] = Tmax in human plasma expressing CYP2C8*1/*1 polymorphism at 80 mg by LC/MS/MS analysis
[13] = AUC in human plasma expressing CYP2C8*2 allele carrier polymorphism at 80 mg by LC/MS/MS analysis
[14] = Cmax in human plasma expressing CYP2C8*2 allele carrier polymorphism at 80 mg by LC/MS/MS analysis; parameters: dose 80 mg
[15] = Half life in human plasma expressing CYP2C8*2 allele carrier polymorphism at 80 mg by LC/MS/MS analysis
[16] = Tmax in human plasma expressing CYP2C8*2 allele carrier polymorphism at 80 mg by LC/MS/MS analysis
[17] = AUC in human plasma expressing CYP2C8*3 allele carrier polymorphism at 80 mg by LC/MS/MS analysis
[18] = Cmax in human plasma expressing CYP2C8*3 allele carrier polymorphism at 80 mg by LC/MS/MS analysis; parameters: dose 80 mg
[19] = Half life in human plasma expressing CYP2C8*3 allele carrier polymorphism at 80 mg by LC/MS/MS analysis
[20] = Tmax in human plasma expressing CYP2C8*3 allele carrier polymorphism at 80 mg by LC/MS/MS analysis
[21] = AUC in human plasma expressing CYP2C9*1/*1 polymorphism at 80 mg by LC/MS/MS analysis
[22] = Cmax in human plasma expressing CYP2C9*1/*1 polymorphism at 80 mg by LC/MS/MS analysis; parameters: dose 80 mg
[23] = Half life in human plasma expressing CYP2C9*1/*1 polymorphism at 80 mg by LC/MS/MS analysis
[24] = Tmax in human plasma expressing CYP2C9*1/*1 polymorphism at 80 mg by LC/MS/MS analysis
[25] = AUC in human plasma expressing CYP2C9*3 allele carrier polymorphism at 80 mg by LC/MS/MS analysis
[26] = Cmax in human plasma expressing CYP2C9*3 allele carrier polymorphism at 80 mg by LC/MS/MS analysis; parameters: dose 80 mg
[27] = Half life in human plasma expressing CYP2C9*3 allele carrier polymorphism at 80 mg by LC/MS/MS analysis
[28] = Tmax in human plasma expressing CYP2C9*3 allele carrier polymorphism at 80 mg by LC/MS/MS analysis

AUC [1]: 2.47 µg·h/mL
AUC [2]: 3.68 µg·h/mL
Cmax [3]: 0.282 µg/mL
Cmax [4]: 0.591 µg/mL
half-life [5]: 25.1 h
half-life [6]: 33.1 h
Tmax [7]: 1.3 h
Tmax [8]: 1.4 h
AUC [9]: 3.01 µg·h/mL
Cmax [10]: 0.437 µg/mL
half-life [11]: 28.7 h
Tmax [12]: 1.4 h
AUC [13]: 3.68 µg·h/mL
Cmax [14]: 0.498 µg/mL
half-life [15]: 29.1 h
Tmax [16]: 1.3 h
AUC [17]: 3.23 µg·h/mL
Cmax [18]: 0.494 µg/mL
half-life [19]: 33.9 h
Tmax [20]: 1 h
AUC [21]: 3.13 µg·h/mL
Cmax [22]: 0.446 µg/mL
half-life [23]: 29.7 h
Tmax [24]: 1.4 h
AUC [25]: 3.4 µg·h/mL
Cmax [26]: 0.511 µg/mL
half-life [27]: 30.1 h
Tmax [28]: 1.1 h
SMILES: CCCc1nc2c(C)cc(-c3nc4ccccc4n3C)cc2n1Cc1ccc(-c2ccccc2C(=O)O)cc1
